# Article PMC4193543 (ChemMedChem, 2012)
# Target: BK β1 subunit (Rattus norvegicus, UniProt P97678)
# Assay: inside-out patch clamp, single-channel NPo in excised oocyte patches
# Format: cell-based
# Sequence of BK β1 subunit (P97678 whole entry): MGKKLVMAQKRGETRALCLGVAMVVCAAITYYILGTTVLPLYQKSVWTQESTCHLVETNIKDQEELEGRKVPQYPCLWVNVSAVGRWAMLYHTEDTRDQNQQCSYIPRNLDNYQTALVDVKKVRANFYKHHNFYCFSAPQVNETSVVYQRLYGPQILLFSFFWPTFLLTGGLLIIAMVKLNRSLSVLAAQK
# Sequence of BK β1 subunit (Q62976 whole entry partner): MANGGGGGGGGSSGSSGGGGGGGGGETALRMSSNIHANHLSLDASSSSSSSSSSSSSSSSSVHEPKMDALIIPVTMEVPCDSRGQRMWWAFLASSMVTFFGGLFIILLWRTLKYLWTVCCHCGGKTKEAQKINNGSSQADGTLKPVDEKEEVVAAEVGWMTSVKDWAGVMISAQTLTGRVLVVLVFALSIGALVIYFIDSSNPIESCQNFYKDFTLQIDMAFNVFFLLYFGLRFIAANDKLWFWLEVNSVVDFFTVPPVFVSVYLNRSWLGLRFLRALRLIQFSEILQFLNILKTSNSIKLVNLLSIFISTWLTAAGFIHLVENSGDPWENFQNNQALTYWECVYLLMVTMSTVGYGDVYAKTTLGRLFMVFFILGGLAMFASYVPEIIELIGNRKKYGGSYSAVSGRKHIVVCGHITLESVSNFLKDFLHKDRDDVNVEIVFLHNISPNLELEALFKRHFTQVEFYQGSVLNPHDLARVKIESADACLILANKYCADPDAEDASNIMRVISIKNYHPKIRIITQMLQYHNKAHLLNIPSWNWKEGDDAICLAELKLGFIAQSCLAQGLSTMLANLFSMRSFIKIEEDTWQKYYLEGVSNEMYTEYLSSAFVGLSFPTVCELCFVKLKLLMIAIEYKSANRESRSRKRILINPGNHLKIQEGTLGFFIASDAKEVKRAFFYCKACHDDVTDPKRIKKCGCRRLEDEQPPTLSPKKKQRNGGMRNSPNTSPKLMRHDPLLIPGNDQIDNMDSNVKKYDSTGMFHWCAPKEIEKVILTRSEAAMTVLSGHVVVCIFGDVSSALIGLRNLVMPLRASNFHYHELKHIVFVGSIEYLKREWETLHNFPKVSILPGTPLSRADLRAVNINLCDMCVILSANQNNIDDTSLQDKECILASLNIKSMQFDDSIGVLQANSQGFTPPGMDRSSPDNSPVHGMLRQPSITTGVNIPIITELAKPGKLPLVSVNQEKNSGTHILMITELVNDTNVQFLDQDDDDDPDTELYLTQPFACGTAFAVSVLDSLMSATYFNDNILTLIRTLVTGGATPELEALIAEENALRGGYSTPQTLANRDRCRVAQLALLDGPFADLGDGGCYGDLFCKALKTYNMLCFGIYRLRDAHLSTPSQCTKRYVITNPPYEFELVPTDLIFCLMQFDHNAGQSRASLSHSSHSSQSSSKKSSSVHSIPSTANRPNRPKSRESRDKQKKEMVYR
row,SMILES,EC50 [µM]
1,"C[C@H](CCC(=O)O)[C@H]1CC[C@H]2[C@@H]3CC[C@@H]4C[C@H](O)CC[C@]4(C)[C@H]3CC[C@]12C [LCA, 5β-cholanic acid-3α-ol]",44
2,"C[C@H](CCC#N)[C@H]1CC[C@H]2[C@@H]3CC[C@@H]4C[C@H](O)CC[C@]4(C)[C@H]3CC[C@]12C [compound 11, 3α-hydroxy-23-cyano analog, de-acetylated derivative (11)]",46.4
3,"C[C@H](CCCC(=O)O)[C@H]1CC[C@H]2[C@@H]3CC[C@@H]4C[C@H](O)CC[C@]4(C)[C@H]3CC[C@]12C [compound 15, higher homologe acid (15, carboxyl group at C25)]",42.8
